Results reported in patent US6121264A, “Imidazole-substituted quinoxalinedione derivatives” (Yamanouchi Pharmaceutical Co., Ltd., priority 1996, dated 2000).
Read-outs that look alike come from different tables or passages of the source.

Key:
glycine receptor = details: in vivo; cited from earlier work
NMDA receptors = details: in vivo; cited from earlier work
AMPA receptor [1] = details: Data reported at the American Society of Neuroscience (1996); read-out: AMPA binding inhibition activity (IC50); cited from earlier work
neuronal culture system = details: compound alone; cited from earlier work
DBA/2 mice = assay: Audiogenic seizure inhibition action in DBA/2 mice; assay type: in vivo; details: Mus musculus, ip, 0.25 h; DBA/2 male mice, intraperitoneal injection 15 minutes before sound stimulus (12 kHz, 120 dB); read-out: minimum effective dose (MED), inhibition of audiogenic seizure
Procedure: 3) Measurement of audiogenic seizure inhibition action in DBA/2 mice
In a sound proof box, a total of 10 male mice of 21 to 28 days of age were exposed to auditory and stimulation by the sound of 12 kHz and 120 dB was applied for 1 minute or until the mice fell into a fit of convulsions. A compound to be tested (the compound of Example 3 which will be described later) was suspended in 0.5% methyl cellulose solution or dissolved in physiological saline and administered by intraperitoneal injection 15 minutes before the sound stimulus. The drug efficacy was evaluated by the presence or absence of spasm, and the minimum effective dose (MED) was calculated.

[2] = test system: rat fetal hippocampus neurons; assay: Kainic acid neurotoxicity inhibition (LDH release) in primary culture of rat fetal hippocampus neurons; assay type: cell-based; details: Neuron, 300 μM kainic acid, 24 hours, read-out: Anti-kainic acid neurotoxicity (IC50)
Excerpt: 2) Measurement of kainic acid neurotoxicity inhibition activity:
The action of the compound of the present invention to inhibit kainic acid neurotoxicity was examined using a primary culture system of rat fetal hippocampus neurons.
Hippocampus was excised from the brain of a rat of 18 to 20 days of age and treated with enzymes papain and DNase I to disperse the cells. The cells were suspended in MEM containing 10% serum and inoculated in 4×10^5 cells/cm^2 portions into wells of a 48 well plate which has been treated in advance with poly-I-lysine, and the medium was exchanged with serum-free medium 24 hours thereafter. The medium exchange was carried out twice a week. The cells cultured for 6 days or more were used in the following test.
(2) Kainic acid neurotoxicity inhibition
The neurotoxicity was expressed as the activity of lactate dehydrogenase released in the culture medium caused by cell death. Cells exposed for 24 hours to serum-free medium containing 300 μM of kainic acid were used as the control, and the action of each of the same test compounds used in the above item 1) to inhibit neuronal death caused by kainic acid was evaluated by allowing each compound to act upon the neurons for 24 hours simultaneously with 300 μM of kainic acid.

AMPA receptor [3] = assay: [3H]-AMPA binding inhibition activity; details: about 45 nM [3H]-AMPA, rat cerebral membrane, 45 minutes on ice water
Procedure: 1) Measurement of [^3 H]-AMPA binding inhibition activity:
A 0.5 ml portion in total volume of a reaction solution containing about 45 nM of [^3 H]-AMPA [2-amino-3-(3-hydroxy-5-methyl-4-isoxazole)propionicacid], about […] of rat cerebral membrane samples and each of the test compounds was allowed to undergo 45 minutes of the reaction on ice water. The amount of [^3 H]-AMPA bonded to the AMPA receptor was measured by a filtration method. The portion substituted by 10 μM of quisqualic acid among the total amount of binding was defined as the amount of specific binding. Evaluation of the test compounds was carried out by calculating the ratio of binding inhibition exerted on the specific binding.
As the test compounds, the compound of Example 3, which will be described later, was used as the compound of the present invention, and a compound described as Example 1 in the aforementioned reference 1, represented by the following formula (to be referred to as comparative compound 1 hereinafter), was used as a comparative compound. […]

AMPA receptor [4] = details: in vivo; cited from earlier work

NC1CCN(O)C1=O (stereo not drawn) [HA-966]
effect in experimental animal model suffering from cerebral ischemia (in words) (glycine receptor): useful

NC(CCCP(=O)(O)O)C(=O)O (stereo not drawn) [2-amino-5-phosphonovalerianic acid]
effect in nervous disorders induced by NMDA and in animal models of epilepsy and cerebral ischemia (in words) (NMDA receptors): effective

O=c1[nH]c2cc(C(F)(F)F)c(N3CCOCC3)cc2n(CP(=O)(O)O)c1=O [Comparative compound 2]
IC50 (AMPA receptor [1]): 150 nM

C=C(C)[C@H]1CN[C@H](C(=O)O)[C@H]1CC(=O)O [kainic acid]
action in neurotoxicity test (in words) (neuronal culture system): induces by itself significant neuronal death

NC(CCCCCP(=O)(O)O)C(=O)O (stereo not drawn) [2-amino-7-phosphonoheptanoic acid]
effect in nervous disorders induced by NMDA and in animal models of epilepsy and cerebral ischemia (in words) (NMDA receptors): effective

O=c1[nH]c2cc([N+](=O)[O-])c(-n3ccnc3)cc2n(CCCCOS(=O)(=O)O)c1=O [Example 3, 4-[2,3-dioxo-7-(1H-imidazol-1-yl)-6-nitro-1,2,3,4-tetrahydroquinoxalin-1-yl]butanesulfate]
minimal effective dose (DBA/2 mice): 3 mg/kg
IC50 [2]: 160 nM
IC50 (AMPA receptor [3]): 39 nM

NS(=O)(=O)c1cccc2c1c([N+](=O)[O-])cc1[nH]c(=O)c(=O)[nH]c12 [NBQX]
effect in experimental animal model suffering from cerebral ischemia (in words) (AMPA receptor [4]): useful

O=C(O)Cn1c(=O)c(=O)[nH]c2cc([N+](=O)[O-])c(-n3ccnc3)cc21 [Comparative compound 1]
IC50 [2]: 800 nM
IC50 (AMPA receptor [3]): 140 nM

Cc1onc(O)c1CC(N)C(=O)O (stereo not drawn) [AMPA, 2-amino-3-(3-hydroxy-5-methyl-4-isoxazolyl)propionic acid]
action in neurotoxicity test (in words) (neuronal culture system): weak action
